Data published in BindingDB's records for doi:10.1016/S0968-0896(02)00561-8 (Purdue University, 2003).
“And” between values parts separate entries of the source, which are not always exact repeats. Equal values may be shown once. Where a name gives a salt, the structure may show the parent alone.

Legend:
[1] = biological target: D(1A) dopamine receptor (Rattus norvegicus, UniProt P18901)
[2] = biological target: D(2) dopamine receptor (Rattus norvegicus, UniProt P61169)
[3] = biological target: D(3) dopamine receptor (Rattus norvegicus, UniProt P19020)
[4] = biological target: T1, D(4) dopamine receptor (Rattus norvegicus, UniProt P30729)
T1 sequence (P30729 whole entry): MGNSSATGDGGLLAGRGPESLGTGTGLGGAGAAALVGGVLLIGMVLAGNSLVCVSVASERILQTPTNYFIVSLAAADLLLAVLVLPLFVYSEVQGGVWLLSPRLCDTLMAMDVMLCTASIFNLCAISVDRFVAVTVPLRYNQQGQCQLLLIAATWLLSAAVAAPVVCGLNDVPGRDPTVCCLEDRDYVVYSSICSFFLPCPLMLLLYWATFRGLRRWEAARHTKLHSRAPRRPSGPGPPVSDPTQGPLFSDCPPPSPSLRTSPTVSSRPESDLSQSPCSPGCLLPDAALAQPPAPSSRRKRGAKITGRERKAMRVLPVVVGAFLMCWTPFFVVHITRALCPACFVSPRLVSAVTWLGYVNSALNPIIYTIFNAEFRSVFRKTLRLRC

Chain of D(1A) dopamine receptor (P18901 whole entry): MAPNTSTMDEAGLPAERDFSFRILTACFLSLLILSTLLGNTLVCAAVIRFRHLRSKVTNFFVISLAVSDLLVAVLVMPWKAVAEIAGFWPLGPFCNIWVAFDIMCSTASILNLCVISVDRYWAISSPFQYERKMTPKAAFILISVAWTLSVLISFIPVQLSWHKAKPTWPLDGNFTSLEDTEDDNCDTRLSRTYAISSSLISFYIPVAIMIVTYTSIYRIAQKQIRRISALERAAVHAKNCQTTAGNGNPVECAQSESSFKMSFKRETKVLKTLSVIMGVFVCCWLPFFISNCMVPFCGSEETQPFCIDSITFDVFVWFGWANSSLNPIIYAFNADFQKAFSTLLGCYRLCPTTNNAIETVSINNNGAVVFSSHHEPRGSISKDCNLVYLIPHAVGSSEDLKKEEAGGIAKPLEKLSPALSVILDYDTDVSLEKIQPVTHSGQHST
Chain of D(3) dopamine receptor (P19020 whole entry): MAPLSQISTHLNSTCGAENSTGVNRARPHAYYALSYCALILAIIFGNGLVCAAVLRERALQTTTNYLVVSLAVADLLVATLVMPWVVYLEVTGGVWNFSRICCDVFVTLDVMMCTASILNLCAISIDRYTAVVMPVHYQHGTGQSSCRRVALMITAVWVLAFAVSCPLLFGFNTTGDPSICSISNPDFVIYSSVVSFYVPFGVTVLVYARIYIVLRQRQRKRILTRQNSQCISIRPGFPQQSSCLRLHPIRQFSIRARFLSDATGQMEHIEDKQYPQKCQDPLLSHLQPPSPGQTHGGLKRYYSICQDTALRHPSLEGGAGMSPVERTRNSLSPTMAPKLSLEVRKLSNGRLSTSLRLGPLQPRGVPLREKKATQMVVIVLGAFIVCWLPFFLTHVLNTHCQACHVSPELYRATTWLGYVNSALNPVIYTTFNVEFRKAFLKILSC
Chain of D(2) dopamine receptor (P61169 whole entry): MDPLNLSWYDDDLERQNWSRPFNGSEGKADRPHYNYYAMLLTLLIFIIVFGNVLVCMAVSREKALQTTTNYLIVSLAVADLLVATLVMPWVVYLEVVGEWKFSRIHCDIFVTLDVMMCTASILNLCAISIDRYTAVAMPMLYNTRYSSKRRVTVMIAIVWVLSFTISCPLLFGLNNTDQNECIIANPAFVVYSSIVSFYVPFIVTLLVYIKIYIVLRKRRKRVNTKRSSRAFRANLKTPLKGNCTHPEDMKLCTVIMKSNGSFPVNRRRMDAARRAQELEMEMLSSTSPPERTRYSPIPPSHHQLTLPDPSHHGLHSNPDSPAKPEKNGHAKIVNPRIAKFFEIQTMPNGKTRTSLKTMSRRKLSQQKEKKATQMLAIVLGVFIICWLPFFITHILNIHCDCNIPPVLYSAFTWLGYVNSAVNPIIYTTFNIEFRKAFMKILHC

Row | Ki [2] | Ki [3] [µM] | Ki [4] [µM] | SMILES | Ki [1]
1 |  | 0.014 | 0.048 | C=CCN1Cc2cccc3c2[C@@H](C1)c1ccc(O)c(O)c1C3 (racemic) [Dinapsoline,(+/-)-N-allyl] | 
2 | 0.039 µM and 0.06 µM | 0.0028 | 0.017 | CCCN1Cc2cccc3c2[C@@H](C1)c1ccc(O)c(O)c1C3 (racemic) [(+/-)-2-propyldinapsoline hydrobromide] | 0.17 µM and 1.2 µM and 0.66 µM
3 | 0.036 µM and 0.049 µM | 0.0043 | 0.063 | C=CCN1Cc2c(C)ccc3c2[C@@H](C1)c1ccc(O)c(O)c1C3 (racemic) [Dinapsoline,(+/-)-4-Methyl-N-allyl] | 0.056 µM and 0.14 µM
4 | 0.023 µM and 0.021 µM | 0.0025 | 0.028 | CCCN1Cc2c(C)ccc3c2[C@@H](C1)c1ccc(O)c(O)c1C3 (racemic) [Dinapsoline,(+/-)-4-Methyl-N-propyl] | 0.2 µM and 1.4 µM
5 |  |  | 0.06 | Oc1ccc2c(c1O)Cc1cccc3c1[C@H]2CNC3 [Dinapsoline, (R)(+)] | 
6 | 0.036 µM and 0.019 µM | 0.018 | 0.083 | Cc1ccc2c3c1CNC[C@H]3c1ccc(O)c(O)c1C2 (racemic) [Dinapsoline,(+/-)-4-Methyl] | 
7 | 0.19 µM and 0.057 µM | 0.028 | 0.22 | Cc1ccc2c3c1Cc1c(ccc(O)c1O)[C@@H]3CNC2 (racemic) [Dinapsoline,(+/-)-6-Methyl] | 

Row | SMILES | Ki [2] | Ki [3] [µM] | Ki [4] [µM] | Ki [1]
8 | Cc1cccc2c1CN[C@H]1CCc3cc(O)c(O)cc3[C@H]21 [Dihydrexidine, 4-methyl] | 0.674 µM | 0.085 |  | 0.0066 µM and 0.018 µM
9 | CCCN1Cc2ccccc2[C@H]2c3cc(O)c(O)cc3CC[C@@H]21 [Dihydrexidine, N-propyl] |  | 0.0087 |  | 0.18 µM
10 | CCCN1Cc2c(C)cccc2[C@H]2c3cc(O)c(O)cc3CC[C@@H]21 [Dihydrexidine, 4-methyl-N-propyl] |  | 0.00208 |  | 0.0234 µM
